Key:
[1] = target: T1, Fatty-acid amide hydrolase 1 (Rattus norvegicus, UniProt P97612); experiment: Inhibition of FAAH in Sprague-Dawley rat brain homogenates preincubated for 10 mins followed by addition of substrate measured after 30 mins by liquid scintillation counting; type: tissue-based
T1 sequence (P97612 whole entry): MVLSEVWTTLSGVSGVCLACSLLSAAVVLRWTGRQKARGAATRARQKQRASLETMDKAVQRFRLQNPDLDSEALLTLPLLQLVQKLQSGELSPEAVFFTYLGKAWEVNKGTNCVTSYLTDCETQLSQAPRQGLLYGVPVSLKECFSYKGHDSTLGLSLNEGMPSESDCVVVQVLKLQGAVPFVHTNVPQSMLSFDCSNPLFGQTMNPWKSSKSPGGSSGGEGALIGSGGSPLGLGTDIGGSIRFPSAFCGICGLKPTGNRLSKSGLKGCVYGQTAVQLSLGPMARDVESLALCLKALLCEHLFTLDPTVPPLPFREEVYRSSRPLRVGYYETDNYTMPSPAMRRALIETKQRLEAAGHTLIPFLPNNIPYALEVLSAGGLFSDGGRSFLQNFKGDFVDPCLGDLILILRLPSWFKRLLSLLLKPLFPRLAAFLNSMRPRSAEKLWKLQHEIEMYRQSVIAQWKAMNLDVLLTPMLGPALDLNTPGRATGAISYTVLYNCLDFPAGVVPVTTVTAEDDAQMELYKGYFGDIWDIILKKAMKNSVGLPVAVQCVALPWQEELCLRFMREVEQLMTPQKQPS

[2] = target: T2, Prostaglandin G/H synthase 1 (Ovis aries, UniProt P05979); experiment: Inhibition of ovine COX1 assessed as production of PGF2-alpha preincubated with compound followed by the addition of 5 uM arachidonic acid as substrate by enzyme immunoassay
T2 sequence (P05979 whole entry): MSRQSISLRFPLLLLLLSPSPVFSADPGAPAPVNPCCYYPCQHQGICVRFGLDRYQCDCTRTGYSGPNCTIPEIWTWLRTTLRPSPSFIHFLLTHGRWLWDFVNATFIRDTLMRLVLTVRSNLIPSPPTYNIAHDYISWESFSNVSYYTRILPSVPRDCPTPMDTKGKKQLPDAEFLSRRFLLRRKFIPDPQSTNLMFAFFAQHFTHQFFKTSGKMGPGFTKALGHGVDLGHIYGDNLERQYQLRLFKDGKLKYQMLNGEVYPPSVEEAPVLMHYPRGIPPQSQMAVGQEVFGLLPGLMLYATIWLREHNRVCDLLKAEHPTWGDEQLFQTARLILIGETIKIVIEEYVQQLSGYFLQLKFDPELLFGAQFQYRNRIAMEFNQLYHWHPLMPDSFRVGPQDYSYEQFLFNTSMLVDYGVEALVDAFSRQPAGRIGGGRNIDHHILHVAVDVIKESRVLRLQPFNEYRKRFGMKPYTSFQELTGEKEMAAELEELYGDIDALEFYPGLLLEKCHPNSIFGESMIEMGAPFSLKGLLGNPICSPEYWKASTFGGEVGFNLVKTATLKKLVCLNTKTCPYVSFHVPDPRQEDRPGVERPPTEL

[3] = target: T3, Prostaglandin G/H synthase 2 (Homo sapiens, UniProt P35354); experiment: Inhibition of recombinant human COX2 assessed as production of PGF2-alpha preincubated with compound followed by the addition of 5 uM arachidonic acid as substrate by enzyme immunoassay
T3 sequence (P35354 whole entry): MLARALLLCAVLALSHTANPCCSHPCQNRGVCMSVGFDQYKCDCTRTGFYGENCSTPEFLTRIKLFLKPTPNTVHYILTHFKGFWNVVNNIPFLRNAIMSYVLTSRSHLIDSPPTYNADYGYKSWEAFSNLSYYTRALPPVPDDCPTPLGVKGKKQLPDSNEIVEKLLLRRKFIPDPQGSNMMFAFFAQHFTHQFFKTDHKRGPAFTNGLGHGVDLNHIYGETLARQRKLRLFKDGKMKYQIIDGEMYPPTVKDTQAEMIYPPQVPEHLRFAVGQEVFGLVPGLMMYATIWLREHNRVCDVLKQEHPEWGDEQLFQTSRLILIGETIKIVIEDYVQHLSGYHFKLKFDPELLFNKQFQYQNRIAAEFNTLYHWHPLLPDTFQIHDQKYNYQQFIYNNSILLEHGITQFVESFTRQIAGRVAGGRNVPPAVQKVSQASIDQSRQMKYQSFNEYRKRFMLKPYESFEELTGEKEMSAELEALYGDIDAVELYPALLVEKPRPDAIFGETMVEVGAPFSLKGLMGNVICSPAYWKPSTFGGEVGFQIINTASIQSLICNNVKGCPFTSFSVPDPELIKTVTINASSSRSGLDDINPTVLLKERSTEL

Compound	IC50 [1] [nM]	IC50 [2] [nM]	IC50 [3] [nM]
CCCNC(=O)Oc1cccc(-c2ccc(C(C)C(=O)O)cc2F)c1 (racemic)	> 100000	1650	> 100000
NC(=O)c1cccc(-c2cccc(OC(=O)NC3CCCCC3)c2)c1 [URB-597]		> 100000	> 100000
CCCCCCNC(=O)Oc1cccc(-c2ccc(C(C)C(=O)O)cc2)c1 (racemic)	3	54	690
CCCCCCNC(=O)Oc1cccc(-c2ccc(C(C)C(=O)OC)cc2F)c1 (racemic)	52	> 100000	> 100000
CCCCCCNC(=O)Oc1cccc(-c2ccc([C@@H](C)C(=O)O)cc2F)c1		4000	
CCCCCCNC(=O)Oc1cccc(-c2ccc(C(=O)O)cc2F)c1	85	> 100000	> 100000
CC(C(=O)O)c1ccc(-c2cccc(OC(=O)NC3CC3)c2)c(F)c1 (racemic)	> 100000	5400	74300
CCCCCCNC(=O)Oc1cccc(-c2ccc(C(C)C(=O)O)cc2O)c1 (racemic)	35	650	13000
CCCCCCNC(=O)Oc1cccc(-c2ccc(C(C)C(=O)O)cc2C(F)(F)F)c1 (racemic)	5	10	200
CCCCCCNC(=O)Oc1ccc(-c2ccc(C(C)C(=O)O)cc2F)cc1 (racemic)	68	> 100000	> 100000
CC(C(=O)O)c1ccc(-c2cccc(OC(=O)NCC3CCCCC3)c2)c(F)c1 (racemic)			> 100000
CC(C(=O)O)c1ccc(-c2cccc(OC(=O)Nc3ccccc3)c2)c(F)c1 (racemic)	41200	270	2700
CCCCCCCCNC(=O)Oc1cccc(-c2ccc(C(C)C(=O)O)cc2F)c1 (racemic)	3		
CC(C(=O)O)c1ccc(-c2cccc(OC(=O)NC3CCC3)c2)c(F)c1 (racemic)	48700	720	> 100000
CC(C(=O)O)c1ccc(-c2cccc(OC(=O)NC3CCCCC3)c2)c(F)c1 (racemic)			> 100000
CCCCCCNC(=O)Oc1cccc(-c2ccc(C(C)C(=O)O)cc2N)c1 (racemic)	49	220	12100

Compound	IC50 [1] [nM]	IC50 [2] [nM]	IC50 [3] [nM]
CC(C(=O)O)c1ccc(-c2cccc(OC(=O)NC3CCCC3)c2)c(F)c1 (racemic)			> 100000
CCCCCCNC(=O)Oc1cccc(-c2ccc(C(C)C(=O)O)cc2Cl)c1 (racemic)	23	9	730
CC(C(=O)O)c1ccc(-c2ccccc2)c(F)c1 (stereo unspecified) [FLURBIPROFEN]	> 100000		
CCCCCCNC(=O)Oc1cccc(-c2ccc(C(C)C(=O)O)cc2C)c1 (racemic)	10	11	1400
CCCCCCNC(=O)Oc1cccc(-c2ccc(C)cc2F)c1	26	> 100000	> 100000
CC(C)NC(=O)Oc1cccc(-c2ccc(C(C)C(=O)O)cc2F)c1 (racemic)	> 100000	3900	> 100000
CCCCCCNC(=O)Oc1cccc(-c2ccc(C(C)CO)cc2F)c1 (racemic)	3		> 100000
CCCCCCNC(=O)Oc1ccccc1-c1ccc(C(C)C(=O)O)cc1F (racemic)			> 100000
CC(C(=O)O)c1ccc(-c2cccc(OC(=O)NCc3ccccc3)c2)c(F)c1 (racemic)			> 100000
CCCCCCNC(=O)Nc1cccc(-c2ccc(C(C)C(=O)O)cc2F)c1 (racemic)	88400	14	560
CCCCCCNC(=O)Oc1cccc(-c2ccc(C(C)C(=O)O)cc2[N+](=O)[O-])c1 (racemic)	9	130	930
CCNC(=O)Oc1cccc(-c2ccc(C(C)C(=O)O)cc2F)c1 (racemic)	> 100000	2100	> 100000
CC(C(=O)O)c1ccc(-c2cccc(OC(=O)NCCc3ccccc3)c2)c(F)c1 (racemic)			> 100000
CC(C(=O)O)c1ccc(-c2cccc(OC(=O)NCCCCc3ccccc3)c2)c(F)c1 (racemic)			> 100000
CC(C)CNC(=O)Oc1cccc(-c2ccc(C(C)C(=O)O)cc2F)c1 (racemic)	4100		> 100000
CCCCNC(=O)Oc1cccc(-c2ccc(C(C)C(=O)O)cc2F)c1 (racemic)			> 100000

Reference: ChEMBL document CHEMBL3774360, “Potent multitarget FAAH-COX inhibitors: Design and structure-activity relationship studies” (Eur J Med Chem, 2016)
